Tests used:
[1] = biological target: T1, Tissue factor (Homo sapiens, UniProt P13726); test: (§1) Inhibition of LPS-induced tissue factor procoagulant activity in human THP1 cells preincubated for 1 hr followed by LPS addition measured after 5 hrs using factor 10a chromogenic substrate in presence of prothrombin complex
[2] = biological target: T1, Tissue factor; test: ChEBML_1654816; description: as §1

T1 sequence (P13726 whole entry): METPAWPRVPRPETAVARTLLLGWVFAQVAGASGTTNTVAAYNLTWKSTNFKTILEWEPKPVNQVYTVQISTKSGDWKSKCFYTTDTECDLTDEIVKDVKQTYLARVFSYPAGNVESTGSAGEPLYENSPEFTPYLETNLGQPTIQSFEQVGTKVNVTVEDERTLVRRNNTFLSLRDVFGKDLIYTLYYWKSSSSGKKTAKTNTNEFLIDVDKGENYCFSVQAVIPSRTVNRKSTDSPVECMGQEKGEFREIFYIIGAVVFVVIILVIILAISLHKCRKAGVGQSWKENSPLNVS

Row | IC50 [1] | IC50 [2] | Compound
1 | 0.035 nM | – | CC1(C)CC[C@]2(C(=O)O[C@@H]3O[C@H](CO)[C@@H](O)[C@H](O)[C@H]3O)CC[C@]3(C)C(=CC[C@@H]4[C@@]5(C)CC[C@H](O)C(C)(C)[C@@H]5CC[C@]43C)[C@@H]2C1 [CHEBI:67985]
2 | 1.3 nM | – | CC1(C)CC[C@]2(C(=O)O)CC[C@]3(C)C(=CC[C@@H]4[C@@]5(C)CC[C@H](O)[C@](C)(CO)[C@@H]5CC[C@]43C)[C@@H]2C1
3 | 11 nM | – | CC1(C)CC[C@]2(C(=O)O[C@@H]3O[C@H](CO)[C@@H](O)[C@H](O)[C@H]3O)[C@H](O)C[C@]3(C)C(=CC[C@@H]4[C@@]5(C)CC[C@H](O)C(C)(C)[C@@H]5CC[C@]43C)[C@@H]2C1
4 | – | 13 nM | COc1cc(/C=C/C(=O)CC(=O)/C=C/c2ccc(O)c(OC)c2)ccc1O [CHEBI:3962]
5 | 0.028 nM | – | C=C(C)[C@@H]1CC[C@]2(C(=O)O[C@@H]3O[C@H](CO)[C@@H](O)[C@H](O)[C@H]3O)CC[C@]3(C)C(CC[C@@H]4[C@@]5(C)CC[C@H](O)[C@@](C)(CO)[C@@H]5CC[C@]43C)[C@H]12 (some centres undefined)
6 | 4.7 nM | – | CC1(C)CC[C@]2(C(=O)OCc3ccccc3)CC[C@]3(C)C(=CC[C@@H]4[C@@]5(C)CC[C@H](O)C(C)(C)[C@@H]5CC[C@]43C)[C@@H]2C1 [benzyl (4aS,6aS,6bR,8aR,10S,12aR,12bR,14bS)-10-hydroxy-2,2,6a,6b,9,9,12a-heptamethyl-1,3,4,5,6,7,8,8a,10,11,12,12b,13,14b-tetradecahydropicene-4a-carboxylate (Compound 4)]
7 | – | 0.64 nM | C=C(C)[C@@H]1CC[C@]2(C(=O)O[C@@H]3O[C@H](CO)[C@@H](O)[C@H](O)[C@H]3O)CC[C@]3(C)C(CC[C@@H]4[C@@]5(C)CC[C@H](O[C@@H]6O[C@H](CO)[C@@H](O)[C@H](O)[C@H]6O)C(C)(C)[C@@H]5CC[C@]43C)[C@H]12 (some centres undefined)
8 | 9.6 nM | – | CC1(C)CC[C@]2(C(=O)O[C@@H]3O[C@H](CO)[C@@H](O)[C@H](O)[C@H]3O)[C@H](O)C[C@]3(C)C(=CC[C@@H]4[C@@]5(C)CC[C@H](O[C@@H]6O[C@H](CO)[C@@H](O)[C@H](O)[C@H]6O)C(C)(C)[C@@H]5CC[C@]43C)[C@@H]2C1
9 | – | 0.801 nM | CC1(C)CC[C@]2(C(=O)O[C@@H]3O[C@H](CO)[C@@H](O)[C@H](O)[C@H]3O)[C@H](O)C[C@]3(C)C(=CC[C@@H]4[C@@]5(C)CC[C@H](O)[C@](C)(CO)[C@@H]5CC[C@]43C)[C@@H]2C1
10 | – | 0.095 nM | CC1(C)CC[C@]2(C(=O)O)CC[C@]3(C)C(=CC[C@@H]4[C@@]5(C)CC[C@H](O[C@@H]6O[C@H](CO)[C@@H](O)[C@H](O)[C@H]6O)C(C)(C)[C@@H]5CC[C@]43C)[C@@H]2C1 [Vitalboside A]
11 | – | 0.054 nM | CC1(C)CC[C@]2(C(=O)O)[C@H](O)C[C@]3(C)C(=CC[C@@H]4[C@@]5(C)CC[C@H](O)C(C)(C)[C@@H]5CC[C@]43C)[C@@H]2C1 [CHEBI:4747]
12 | 0.221 nM | – | CC1(C)CC[C@]2(C(=O)O)CC[C@]3(C)C(=CC[C@@H]4[C@@]5(C)CCC(=O)C(C)(C)[C@@H]5CC[C@]43C)[C@@H]2C1 [Oleanonic Acid]
13 | 0.078 nM | – | C=C(C)[C@@H]1CC[C@]2(C(=O)O[C@@H]3O[C@H](CO)[C@@H](O)[C@H](O)[C@H]3O)CC[C@]3(C)C(CC[C@@H]4[C@@]5(C)CC[C@H](O)C(C)(C)[C@@H]5CC[C@]43C)[C@H]12 (some centres undefined)
14 | – | 0.28 nM | CC1(C)CC[C@]2(C(=O)O[C@@H]3O[C@H](CO)[C@@H](O)[C@H](O)[C@H]3O)CC[C@]3(C)C(=CC[C@@H]4[C@@]5(C)CC[C@H](O)[C@@](C)(CO)[C@@H]5CC[C@]43C)[C@@H]2C1 [CHEBI:67947]
15 | 6.5 nM | – | CC1(C)CC[C@]2(C(=O)O[C@@H]3O[C@H](CO)[C@@H](O)[C@H](O)[C@H]3O)CC[C@]3(C)C(=CC[C@@H]4[C@@]5(C)CC[C@H](O)[C@](C)(CO)[C@@H]5CC[C@]43C)[C@@H]2C1
16 | 0.221 nM | – | CC1(C)CC[C@]2(C(=O)O)CC[C@]3(C)C(=CC[C@@H]4[C@@]5(C)CC[C@H](O)[C@@](C)(CO)[C@@H]5CC[C@]43C)[C@@H]2C1 [4-Epi-Hederagenin]
17 | 5 nM | – | CC1(C)CC[C@]2(C(=O)O)CC[C@]3(C)C(=CC[C@@H]4[C@@]5(C)CC[C@H](O)C(C)(C)[C@@H]5CC[C@]43C)[C@@H]2C1 [Oleanolic acid (OA)(Compound 1)]
18 | 16 nM | – | CC1(C)CC[C@]2(C(=O)O[C@@H]3O[C@H](CO)[C@@H](O)[C@H](O)[C@H]3O)CC[C@]3(C)C(=CC[C@@H]4[C@@]5(C)CC[C@H](O[C@@H]6O[C@H](CO)[C@@H](O)[C@H](O)[C@H]6O)C(C)(C)[C@@H]5CC[C@]43C)[C@@H]2C1

Row | Compound | IC50 [1] | IC50 [2]
19 | C=C(C)[C@@H]1CC[C@]2(C(=O)O)CC[C@]3(C)C(CC[C@@H]4[C@@]5(C)CC[C@H](O)[C@@](C)(CO)[C@@H]5CC[C@]43C)[C@H]12 (some centres undefined) | 0.221 nM | –

Source: BindingDB's records for doi:10.1016/j.bmcl.2016.12.066 (China Pharmaceutical University, 2017)
